Source: US5795859A (priority 1991, dated 1998)
Ends that are not written are not given here.

How the values were obtained:
[1] = test system: D-galactosamine sensitized mice; assay: TNF toxicity in D-galactosamine sensitized mice; assay type: in vivo; details: 16 mg D-galactosamine and 2 μg human recombinant TNF i.p., peptide s.c.; survival up to 48 hours
Method: The mice were then injected subcutaneously with either test peptide, phosphate buffered saline or neutralizing anti-TN? monoclonal antibody 47.

mice = assay: In vivo TNF toxicity, blood glucose and appearance; details: 10 μg of Peptide 2, 200 μg recombinant human TNF
Method: Appearance parameters which were evaluated included ruffling of fur, touch sensitivity, presence of eye exudate, light sensitivity and diarrhoea.
Nonfasting blood glucose levels were determined on a Beckman Glucose Analyzer 2 (Beckman Instruments) or on a Exectech blood glucose sensor (Clifford Hallam Pty. Ltd).

[2] = test system: Meth A ascites tumour-bearing mice; assay: LPS lethality in Meth A ascites tumour-bearing mice; assay type: in vivo; details: 500 μg E.coli LPS, peptide s.c.; survival up to 64 hours; * heightened activity
Method: In LPS experiments polymyxin B, an LPS inhibitor, replaced MAb 47 as a positive control. The number of animals surviving was assessed at intervals up to 64 hours after LPS challenge.

[3] = test system: bovine aortic endothelial cells
Method: Endothelial cell procoagulant activity (PCA) induction by TNFα was determined using bovine aortic endothelial cells (BAE) according to the procedure of Bevilacqua et al., 1986 PNAS 83, 4522 with the following modifications: BAE cells were propagated in McCoys 5A medium supplemented with 10% FCS, penicillin, streptomycin and L-gutamine in standard tissue culture flasks and 24-well dishes. TNFα treatment of culture (3 μg/ml) was for 4 hours at 37° C. in the presence of growth medium after which the cells were washed and scrape-harvested before being frozen, thawed and sonicated. Total cellular PCA was determined in a standard one-stage clotting assay using normal donor platelet poor plasma to which 100 μl of CaCl2 and 100 μl of cell lystate was added. Statistical significance was determined by unpaired t-test.

Method for human neutrophils: In these experiments, neutrophils were prepared from blood of healthy volunteers by the rapid single step method (Kowanko and Ferrante 1987 Immunol 62, 149). To 100 μl of 5×10^6 neutrophils/ml was added 100 μl of either 0, 10, 100 μg of peptide/ml and 800 μl of lucigenin (100 μg). The tubes were immediately placed into a light proof chamber (with a 37° C. water jacket incubator) of a luminometer (model 1250; LKB Instruments, Wallac, Turku, Finaldn). The resultant light output (in millivolts was recorded). The results are recorded as the maximal rate of chemiluminescence production.

Substance | IN VIVO TNF TOXICITY D-GAL [1] | TNF toxicity as indicated by blood glucose changes (mice) | IN VIVO LPS TOXICITY METH A [2] | activation of the respiratory burst (human neutrophils) | induction of procoagulant activity [3]
ARG THR PRO SER ASP LYS VAL PRO ALA HIS VAL VAL ALA (RTPSDKVPAHVVA; printed: ARG THR PRO SER ASP LYS VAL PRO ALA HIS VAL VAL ALA) [Peptide 2] | + (each group contains 10 animals: scored positive if 6 or more survive) | abrogated TNF toxicity |  |  | 
Ac-PSDKPVA-NH2 [Peptide 29, Ac PRO SER ASP LYS PRO VAL ALA NH2] |  |  | + (10 animals per group scored positive if 7 or more survive) |  | 
Ac-RTPSDKPVAHV-NH2 [Peptide 30, Ac ARG THR PRO SER ASP LYS PRO VAL ALA HIS VAL NH2] | + (each group contains 10 animals: scored positive if 6 or more survive) |  | + (10 animals per group scored positive if 7 or more survive) |  | 
VRSSSRTPSDKPVAHVVA [Peptide 1, VAL ARG SER SER SER ARG THR PRO SER ASP LYS PRO VAL ALA HIS VAL VAL ALA] |  |  |  | failed to either activate the respiratory burst | failed to either activate the respiratory burst of human neutrophils (Table 5) or to induce procoagulant activity
